Experiments:
LPS-induced lethality = LPS-induced lethality (IP dosing); type: in vivo, mice; conditions: 11 × 300 μg/mouse IP (3.3 mg), every 4 hr; 0.6 mg LPS
Experimental: These experiments were performed based on information reported by Rivier etal., Endocrinology 125:2800-2805 (1989), which is incorporated herein by reference. Adult female Balb/c mice were provided food and water ad libitum. Mice were injected IP every four hr for 40 hr with 30 to 300 μg EX-2, EX-3 or EX-4 in 0.2 ml saline (treated group) or with 0.2 ml saline, alone (control group) (10 mice per group). Immediately following the first injection, 0.6 mg LPS endotoxin in 0.2 ml saline was administered to each mouse. Following LPS injection, EX-2 or saline was administered to the treated mice or the control mice, respectively, every 4 hr for 36 hr.

[1] = system: LPS-induced PMN infiltration in lungs; assay: Adult respiratory distress syndrome: LPS-induced PMN count in broncho-alveolar lavage; type: in vivo, rats; conditions: 100 μg/kg IP; broncho-alveolar lavage 6 hr after intratracheal LPS
Experimental: These experiments were performed using a modification of the methods described by Ulich et al., Am. J. Pathol. 141:61-68 (1992) and by Wheelden et al., Lab. Animals 26:29-37 (1992), each of which is incorporated herein by reference. Male Harlan Sprague-Dawley rats were anesthetized using a mixture of 70 mg/kg ketamine and 6 mg/kg rompun injected IP. A 2-3 cm incision was made in the neck of each anesthetized rat and its trachea was exposed by blunt dissection of the surrounding soft tissue. The rats were suspended on a near vertical slab and intratracheal injections were performed by inserting into the exposed trachea, at a point 1 cm posterior to the larynx, a 25G×1/2 inch needle attached to a 1 cc syringe.
Each rat received 0.5 ml/kg of saline or 0.5 ml/kg of 10 mg/ml (5 mg/kg) LPS endotoxin via slow intratracheal administration. Immediately following administration of the LPS endotoxin, rats were injected IP with 1 ml/kg of either saline (control) or saline containing various concentrations of EX-2 (treated). The rats were maintained in the elevated position for 1-2 min to facilitate distribution of the LPS and saline into the lung. The incisions were closed and the rats were allowed to recover. […]
The total polymorphonuclear leukocytes (PMN; neutrophits) in the broncho-alveolar lavage fluid were counted in the EX-2-treated rats and compared with the number in the control rats.

LPS-induced fever = assay: LPS-induced temperature increase (fever); type: in vivo, rats; conditions: 6 hr following LPS injection
Experimental: Male Wistar rats (45-75 days old) were placed in a temperature controlled room held at 26° C., which is thermoneutral for the normal body temperature of rats, and were maintained in the room with free access to food and water for 24 hr prior to testing. On the morning of the study, rats were marked for identification and weighed. The temperature of each rat was determined by placing the animal in a regulatory cage designed to minimize stress and inserting a temperature probe (YSI probe #402) 3-5 cm into the animal's rectum. The temperature was recorded 15 sec after the reading stabilized. Measurements were repeated 1 hr later to establish a baseline temperature for each rat.
After the baseline temperatures were established, rats were injected IP with saline, IL-1β or LPS endotoxin. Rats then were injected IP with either saline (control) or various concentrations of EX-2, EX-3, or EX-4 (treated). The temperature of the rats was measured every hr for 6 hr and the inhibition by EX-2, EX-3, or EX-4 of the rise in temperature due to IL-1β or LPS was determined.
In addition, treatment with 50 or 150 μg/kg EX-2 inhibited LPS-induced fever by 45% or 52%, respectively, when measured 6 hr following LPS injection. Furthermore, treatment with 150 μg/kg EX-3 or EX-4 inhibited LPS-induced fever by 57% and 52%, respectively (Table II).

[2] = system: Carageenan-induced paw swelling; assay: Carageenan-induced paw swelling; type: in vivo, mice; conditions: 1 μg/mouse; 2 hr time point
Experimental: Carageenan-induced paw swelling was induced using a modification of the methods of Hiltz and Lipton, Peptides 11:979-982 (1990); Vinegar et al., Fed. Proc. 46:118-126 (1987); and Vinegar et al., J. Pharmacol. Expt. Therap. 166:96-103 (1969), each of which is incorporated herein by reference. Briefly, adult female Balb/c mice were anesthetized by IP injection of 7 mg/kg ketoamine and 0.6 mg/kg rompun. Foot pad thickness was measured using a spring loaded micrometer (Swiss Precision Instruments). Foot pad thickness was expressed in units of 1/100 inch. After baseline measurements were obtained, mice were injected into a hind foot pad with either 0.2 ml physiologic saline (control) or varying doses of EX-2 or EX-3 in 0.2 ml saline (treated). The first injection was followed immediately by injection of 0.02 ml of 0.15% K-carageenan (Sigma Chemical Co.; St. Louis, Mo.).
Hind foot pad thickness was measured hourly for six hr, the change in thickness was determined and the percent reduction in swelling due to treatment with EX-2 was calculated.

disuse deconditioning = assay: Disuse deconditioning (tail suspension) in rats; type: in vivo; conditions: 1 or 5 μg/kg IP twice daily
Experimental: Adult male Sprague-Dawley rats (355-365 g) were used in this study. Animals were housed individually in standard rat cages and were acclimated on a treadmill for 4 days. The next day, a baseline tail bleed was performed, followed by a maximal treadmill stress test the day after. The day following the stress test, the animals were divided into the appropriate treatment and control groups and the animals were suspended by their tails in suspension cages, which simulates weightlessness and, therefore, deconditions the animals. Another group of control animals was placed in standard rat cages with grated flooring similar to that utilized in the suspension cages. All animals were housed one per cage and supplied with food and water ad libitum. Body weights and food consumptions were measured daily. Animals received twice daily IP injections of 1 μg/kg or 5 μg/kg body weight of EX-2 (treated), or 1 ml/kg body weight of saline (control). On day 10, all animals were stress tested on the treadmill until they reached exhaustion. Data on maximum VO2 and running time were collected and compared to pre-suspension results. On day 14, all animals were sacrificed, and blood, tissues, and organs were collected for further analysis. All procedures and tests were performed blind to avoid researcher subjectivity. Statistical significance (p<0.05) between groups was evaluated by ANOVA with Student-Newman-Keuls test for multiple comparisons. All data are reported as the mean ± standard error (SE).
All of the animals were subjected to the stress tests, which measured exercise time and maximal VO2. As well, levels of the oxidative enzyme soleus citrate synthase and tibia bone density were measured.
Soleus citrate synthase was attenuated by 50%.

[3] = suspended rats, stress test day 10

For “Ac-Nle-Gln-His-(D)Phe-Arg-(D)Trp-Gly-NH2 [EX-2]”, the “Inhibition of LPS-induced Lethality (increase in survival vs control)” value (LPS-induced lethality) was 83%, the “Reduction in LPS-induced PMN Count” value [1] was 58% and the “Reduction in LPS-induced Fever” value (LPS-induced fever; 50 μg/kg IP) was 45%. For the same substance, the “Reduction in LPS-induced Fever” value (LPS-induced fever; 150 μg/kg IP) was 52%, the “Reduction in Carageenan-induced Paw Swelling” value [2] was 45% and the “% Attenuation of suspension-induced decrease, Soleus Citrate Synthase” value (disuse deconditioning; 14 days suspension) was 50%. For the same substance, the “% Attenuation of suspension-induced decrease, Tibia Bone Density” value (disuse deconditioning; 14 days suspension) was 50%, the “% Attenuation of suspension-induced decrease, Exercise Time” value (disuse deconditioning; [3]) was 44% and the “% Attenuation of suspension-induced decrease, Maximal VO2” value (disuse deconditioning; [3]) was 80%.
